Measured values as given in the supplement of paper PMC11061612.

Assays:
Experiment in all cases: combination Emax (second highest fraction inhibited in the dose matrix, 72 h); higher = more inhibition; extreme values may be limits of the assay
[1] = tested on: RKO (Colorectal Carcinoma)
In short: (§1)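 Cell lines grown in DMEM/F12 or RPMI with 10% FBS were plated in 1536-well plates and held 24 hours at 37°C, 5% CO2 before 72 hours of exposure to two-drug dose matrices, with DMSO typically at 0.2%. CellTiter-Glo 2.0 luminescence gave viability, which was converted to inhibition. Vehicle wells were set to 0 and blank wells to 1. Combination Emax is the second-highest inhibition in the matrix, and Bliss excess is the observed combination effect minus the expected EA + EB − EA·EB, where EA and EB are the single-agent effects.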

NCI-H2795 (Mesothelioma) = tested on: NCI-H2795 (Mesothelioma)
In short: as §1

[2] = tested on: 639-V (Bladder Carcinoma)
In short: as §1

[3] = tested on: 8305C (Thyroid Gland Carcinoma)
In short: as §1

[4] = tested on: NCI-H747 (Colorectal Carcinoma)
In short: as §1

[5] = tested on: EN (Endometrial Carcinoma)
In short: as §1

COLO-829 (Melanoma) = tested on: COLO-829 (Melanoma)
In short: as §1

NCI-H2461 (Mesothelioma) = tested on: NCI-H2461 (Mesothelioma)
In short: as §1

[6] = tested on: HARA (Squamous Cell Lung Carcinoma)
In short: as §1

[7] = tested on: UMC-11 (Other Solid Carcinomas)
In short: as §1

[8] = tested on: NCI-H69 (Small Cell Lung Carcinoma)
In short: as §1

[9] = tested on: PCI-30 (Head and Neck Carcinoma)
In short: as §1

[10] = tested on: SU-DHL-6 (B-Cell Non-Hodgkin's Lymphoma)
In short: as §1

[11] = tested on: RPMI-6666 (Non-Cancerous)
In short: as §1

[12] = tested on: SW1271 (Small Cell Lung Carcinoma)
In short: as §1

[13] = tested on: CAL-51 (Breast Carcinoma)
In short: as §1

[14] = tested on: HCC-15 (Squamous Cell Lung Carcinoma)
In short: as §1

[15] = tested on: CAL-54 (Kidney Carcinoma)
In short: as §1

NB14 (Neuroblastoma) = tested on: NB14 (Neuroblastoma)
In short: as §1

SH-4 (Melanoma) = tested on: SH-4 (Melanoma)
In short: as §1

Structure (SMILES)	combination Emax [1]	combination Emax (NCI-H2795 (Mesothelioma))	combination Emax [2]	combination Emax [3]	combination Emax [4]	combination Emax [5]	combination Emax (COLO-829 (Melanoma))	combination Emax (NCI-H2461 (Mesothelioma))	combination Emax [6]	combination Emax [7]	combination Emax [8]	combination Emax [9]	combination Emax [10]	combination Emax [11]	combination Emax [12]	combination Emax [13]	combination Emax [14]	combination Emax [15]	combination Emax (NB14 (Neuroblastoma))	combination Emax (SH-4 (Melanoma))
CC1(C)CCC(CN2CCN(c3ccc(C(=O)NS(=O)(=O)c4ccc(NCC5CCOCC5)c([N+](=O)[O-])c4)c(Oc4cnc5[nH]ccc5c4)c3)CC2)=C(c2ccc(Cl)cc2)C1 [Venetoclax] + COc1cc(Nc2ncc3c(n2)-c2ccc(Cl)cc2C(c2c(F)cccc2OC)=NC3)ccc1C(=O)O [Alisertib] (first compound max 1 µM, 7x7, partner max 10 µM)	0.487	0.936	0.752	0.627	0.419	0.463	0.252	0.459	0.787	0.798	0.837	0.218	0.96	0.967	0.326	0.574	0.86	0.523	0.993	0.146
Cc1c2c(nn1C)CSCc1cc(n(C)n1)CSc1cc(c3ccccc3c1)OCCCc1c(C(=O)O)n(C)c3c-2c(Cl)ccc13 [AZD5991] + CC1(C)CCC(CN2CCN(c3ccc(C(=O)NS(=O)(=O)c4ccc(NCC5CCOCC5)c([N+](=O)[O-])c4)c(Oc4cnc5[nH]ccc5c4)c3)CC2)=C(c2ccc(Cl)cc2)C1 [Venetoclax] (first compound max 1 µM, 7x7, partner max 1 µM)	0.225	0.793	0.194	0.379	0.196	0.608	0.213	0.181	0.294	0.821	0.522	0.218	1	0.911	0.0732	0.521	0.323	0.163	1	0.642
CN(CCO)CC[C@H](CSc1ccccc1)Nc1ccc(S(=O)(=O)NC(=O)c2ccc(N3CCC([C@@H](O)c4ccccc4-c4ccc(Cl)cc4)CC3)cc2)cc1S(=O)(=O)C(F)(F)F [AZD4320] + CCN(CCO)CCCOc1ccc2c(Nc3cc(CC(=O)Nc4cccc(F)c4)[nH]n3)ncnc2c1 [AZD2811] (first compound max 1 µM, 7x7, partner max 1 µM)	0.194	0.284	0.303	0.386	0.414	0.381	0.196	0.174	0.63	0.93	0.896	0.284	0.958	0.982	0.234	0.615	0.966	0.163	1	0.181
Cc1c2c(nn1C)CSCc1cc(n(C)n1)CSc1cc(c3ccccc3c1)OCCCc1c(C(=O)O)n(C)c3c-2c(Cl)ccc13 [AZD5991] + C[C@@H]1COCCN1C2=NC(=NC(=C2)C3(CC3)[S@](=N)(=O)C)C4=C5C=CNC5=NC=C4 [AZD6738] (first compound max 1 µM, 7x7, partner max 10 µM)	0.85	0.939	0.452	0.593	0.322	0.853	0.532	0.765	0.776	0.828	0.335	0.603	1	0.889	0.604	0.899	0.297	0.706	0.989	0.422
NC1(C(=O)N[C@@H](CCO)c2ccc(Cl)cc2)CCN(c2ncnc3[nH]ccc23)CC1 [Capivasertib] + CC(C)n1c(=O)n(C)c2cnc3cc(F)c(-c4ccc(OCCCN5CCCCC5)nc4)cc3c21 [AZD1390] (first compound max 10 µM, 7x7, partner max 0.3 µM)	0.524	0.394	0.252	0.436	0.523	0.574	0.201	0.6	0.514	0.201	0.514	0.298	1	0.715	0.371	0.488	0.26	0.466	0.381	0.359
